Source: patent publication US20070128217A1 (priority 2003, published 2007)

Assays:
[1] = test system: antibodies in sera from SARS patients (sera 1a, 1b, 2, 6, 37, 62, London, SARS-yellow, SARS-green); format: binding, human; parameters: Binding of serum 6 to linear peptides of protein X1 of SARS-CoV Urbani / Binding of serum 37 to linear peptides of protein X1 of SARS-CoV Urbani / Binding of serum 6 to looped/cyclic peptide (PEPSCAN-ELISA) / Binding of serum 37 to looped/cyclic peptide (PEPSCAN-ELISA) / Binding of serum 37 to looped/cyclic peptides of protein X1 of SARS-CoV Urbani / Binding of serum 6 to linear peptides of protein X2 / Binding of serum 37 to linear peptides of protein X2 / Binding of serum 37 to looped/cyclic peptides of protein X2 of SARS-CoV Urbani / Binding of serum 6 to linear peptides of protein M of SARS-CoV Urbani / Binding of serum 37 to linear peptides of protein M of SARS-CoV Urbani / Binding of serum 6 to looped/cyclic peptides of protein M of SARS-CoV Urbani / Binding of serum 37 to looped/cyclic peptides of protein M of SARS-CoV Urbani / Binding of serum 6 to linear peptides of protein X3 of SARS-CoV Urbani / Binding of serum 37 to linear peptides of protein X3 of SARS-CoV Urbani / Binding of serum 37 to looped/cyclic peptides of protein X3 of SARS-CoV Urbani / Binding of serum 6 to linear peptides of protein X4 of SARS-CoV Urbani / Binding of serum 37 to linear peptides of protein X4 of SARS-CoV Urbani / Binding of serum 37 to looped/cyclic peptides of protein X4 of SARS-CoV Urbani / Binding of serum 6 to linear peptides of protein X5 of SARS-CoV Urbani / Binding of serum 37 to linear peptides of protein X5 of SARS-CoV Urbani / Binding of serum 37 to looped/cyclic peptides of protein X5 of SARS-CoV Urbani / Binding of serum 6 to linear peptides of protein N of SARS-CoV Urbani / Binding of serum 37 to linear peptides of protein N of SARS-CoV Urbani / Binding of serum 6 to linear peptide (PEPSCAN-ELISA) / Binding of serum 1a to looped/cyclic peptides of protein N of SARS-CoV Urbani / Binding of serum 1b to looped/cyclic peptides of protein N of SARS-CoV Urbani / Binding of serum 2 to looped/cyclic peptides of protein N of SARS-CoV Urbani / Binding of serum 6 to looped/cyclic peptides of protein N of SARS-CoV Urbani / Binding of serum 37 to looped/cyclic peptides of protein N of SARS-CoV Urbani / Binding of serum 62 to looped/cyclic peptides of protein N of SARS-CoV Urbani / Binding of serum London to looped/cyclic peptides of protein N of SARS-CoV Urbani / Binding of serum SARS-green to looped/cyclic peptides of protein N of SARS-CoV Urbani: unit not given here
[2] = test system: control sera (pooled serum of ten healthy LUMC hospital workers; commercial negative donor pooled serum from the Dutch bloodbank); format: binding, human; parameters: Binding of Control serum LUMC to linear peptides / Binding of Control serum Blood-bank to linear peptides / Binding of Control serum LUMC to looped peptides / Binding of Control Serum Blood-Bank to Looped peptides / Binding of Control serum LUMC to linear peptides of the protein M of SARS-CoV Urbani / Binding of Control serum Blood-bank to linear peptides of the protein M of SARS-CoV Urbani / Binding of Control serum LUMC to looped peptides of the protein M of SARS-CoV Urbani / Binding of Control Serum Blood-Bank to Looped peptides of the protein M of SARS-CoV Urbani: unit not given here
[3] = test system: rabbit serum obtained by immunizing a rabbit with the SARS-CoV strain Frankfurt 1; format: binding; parameters: Binding of a rabbit serum to linear peptides / Binding of a rabbit serum to looped peptides / Rabbit serum linear peptides / Rabbit serum looped peptides / Binding of a rabbit serum to linear peptides of protein N of SARS-CoV Urbani (Rabbit serum linear peptides) / Binding of a rabbit serum to looped/cyclic peptides of protein N of SARS-CoV Urbani (Rabbit serum looped peptides): unit not given here

In the case of IQQWIQFMMSRRRLL, the “Binding of serum 1a to linear peptides of protein X2” value [1] is reported as 0.6, the “Binding of serum 1a to looped/cyclic peptides of protein X2 of SARS-CoV Urbani” value [1] is reported as 0.4 and the “Binding of serum 1b to linear peptides of protein X2” value [1] is reported as 0.5. The “Binding of serum 1b to looped/cyclic peptides of protein X2 of SARS-CoV Urbani” value [1] was 0.4, the “Binding of serum 2 to linear peptides of protein X2” value [1] was 0.4 and the “Binding of serum 2 to looped/cyclic peptides of protein X2 of SARS-CoV Urbani” value [1] was 0.5. The “Binding of serum 6 to linear peptides of protein X2” value [1] was 0.6, the “Binding of serum 6 to looped/cyclic peptides of protein X2 of SARS-CoV Urbani” value [1] was 0.4 and the “Binding of serum 37 to linear peptides of protein X2” value [1] was 0.6. For the same sequence, the “Binding of serum 37 to looped/cyclic peptides of protein X2 of SARS-CoV Urbani” value [1] was 0.5, the “Binding of serum 62 to linear peptides of protein X2” value [1] was 0.5 and the “Binding of serum 62 to looped/cyclic peptides of protein X2 of SARS-CoV Urbani” value [1] was 0.7. The “Binding of serum London to linear peptides of protein X2” value [1] was 0.4, the “Binding of serum London to looped/cyclic peptides of protein X2 of SARS-CoV Urbani” value [1] was 0.2 and the “Binding of serum SARS-green to linear peptides of protein X2” value [1] was 0.3. For the same sequence, the “Binding of serum SARS-green to looped/cyclic peptides of protein X2 of SARS-CoV Urbani” value [1] was 0.4, the “Binding of serum SARS-yellow to linear peptides of protein X2” value [1] was 0.8 and the “Binding of serum SARS-yellow to looped/cyclic peptides of protein X2 of SARS-CoV Urbani” value [1] was 0.5. The “Binding of Control Serum Blood-Bank to Looped peptides” value [2] was 0.5, the “Binding of Control serum Blood-bank to linear peptides” value [2] was 0.7 and the “Binding of Control serum LUMC to linear peptides” value [2] was 0.5. The “Binding of Control serum LUMC to looped peptides” value [2] was 0.6, the “Binding of a rabbit serum to linear peptides” value [3] was 0.4 and the “Binding of a rabbit serum to looped peptides” value [3] was 1.0.

With IRQEEVQQELYSPLF the “Binding of serum 1a to linear peptides of protein X4 of SARS-CoV Urbani” value [1] was 0.7, the “Binding of serum 1b to linear peptides of protein X4 of SARS-CoV Urbani” value [1] was 0.6 and the “Binding of serum 2 to linear peptides of protein X4 of SARS-CoV Urbani” value [1] was 0.5. The “Binding of serum 6 to linear peptides of protein X4 of SARS-CoV Urbani” value [1] was 0.5, the “Binding of serum 37 to linear peptides of protein X4 of SARS-CoV Urbani” value [1] was 0.8 and the “Binding of serum 62 to linear peptides of protein X4 of SARS-CoV Urbani” value [1] was 0.8. The “Binding of serum London to linear peptides of protein X4 of SARS-CoV Urbani” value [1] was 0.7, the “Binding of serum SARS-green to linear peptides of protein X4 of SARS-CoV Urbani” value [1] was 0.8 and the “Binding of serum SARS-yellow to linear peptides of protein X4 of SARS-CoV Urbani” value [1] was 0.7. The “Recognition of the peptide by sera of SARS-CoV infected individuals, and form (linear, looped/cyclic) in which it is recognized” value [1] was “recognized in looped/cyclic form”, the “Binding of Control Serum Blood-Bank to Looped peptides” value [2] was 0.7 and the “Binding of Control serum Blood-bank to linear peptides” value [2] was 0.7. The “Binding of Control serum LUMC to linear peptides” value [2] was 0.7, the “Binding of Control serum LUMC to looped peptides” value [2] was 0.9 and the “Rabbit serum linear peptides” value [3] was 0.4. The “Rabbit serum looped peptides” value [3] was 0.4.

With ITTDTGIENATFFIF the “Binding of serum 1a to linear peptides of protein X1 of SARS-CoV Urbani” value [1] was 0.8, the “Binding of serum 1a to looped/cyclic peptides of protein X1 of SARS-CoV Urbani” value [1] was 0.7 and the “Binding of serum 1b to linear peptides of protein X1 of SARS-CoV Urbani” value [1] was 0.7. The “Binding of serum 1b to looped/cyclic peptides of protein X1 of SARS-CoV Urbani” value [1] was 0.6, the “Binding of serum 2 to linear peptides of protein X1 of SARS-CoV Urbani” value [1] was 0.6 and the “Binding of serum 2 to looped/cyclic peptides of protein X1 of SARS-CoV Urbani” value [1] was 0.6. The “Binding of serum 6 to linear peptides of protein X1 of SARS-CoV Urbani” value [1] was 0.5, the “Binding of serum 6 to looped/cyclic peptides of protein X1 of SARS-CoV Urbani” value [1] was 0.5 and the “Binding of serum 37 to linear peptides of protein X1 of SARS-CoV Urbani” value [1] was 0.6. For the same sequence, the “Binding of serum 37 to looped/cyclic peptides of protein X1 of SARS-CoV Urbani” value [1] was 0.9, the “Binding of serum 62 to linear peptides of protein X1 of SARS-CoV Urbani” value [1] was 0.5 and the “Binding of serum 62 to looped/cyclic peptides of protein X1 of SARS-CoV Urbani” value [1] was 0.8. For the same sequence, the “Binding of serum London to linear peptides of protein X1 of SARS-CoV Urbani” value [1] was 0.3, the “Binding of serum London to looped/cyclic peptides of protein X1 of SARS-CoV Urbani” value [1] was 0.3 and the “Binding of serum SARS-green to linear peptides of protein X1 of SARS-CoV Urbani” value [1] was 0.3. For the same sequence, the “Binding of serum SARS-green to looped/cyclic peptides of protein X1 of SARS-CoV Urbani” value [1] was 0.6, the “Binding of serum SARS-yellow to linear peptides of protein X1 of SARS-CoV Urbani” value [1] was 0.5 and the “Binding of serum SARS-yellow to looped/cyclic peptides of protein X1 of SARS-CoV Urbani” value [1] was 0.7. For the same sequence, the “Binding of Control Serum Blood-Bank to Looped peptides” value [2] was 0.6, the “Binding of Control serum Blood-bank to linear peptides” value [2] was 0.4 and the “Binding of Control serum LUMC to linear peptides” value [2] was 0.9. The “Binding of Control serum LUMC to looped peptides” value [2] was 0.9, the “Binding of a rabbit serum to linear peptides” value [3] was 0.1 and the “Binding of a rabbit serum to looped peptides” value [3] was 0.6.
